Measured values published in patent US10800792B2, “Inhibitors of Bruton's tyrosine kinase and method of their use” (JANSSEN PHARMACEUTICA NV, priority 2015, dated 2020).

Target: unphosphorylated-BTK kinase domain (UP-BTK), GST-tagged human BTK (389-659aa) (Homo sapiens (Human), UniProt Q06187)
Assay: BTK kinase Lanthascreen binding assay
Details: Lanthascreen tracer competition, 60 minutes incubation; pIC50 = negative log of the IC50 in molar
Procedure, shortened: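 Compound binding to the unphosphorylated kinase domain was monitored by displacement of a fluorescently labelled tracer in a Lanthascreen format. Potency is given as pIC50, the negative log of the molar IC50.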

Chain of unphosphorylated-BTK kinase domain (UP-BTK), GST-tagged human BTK (389-659aa) (Q06187 389-659): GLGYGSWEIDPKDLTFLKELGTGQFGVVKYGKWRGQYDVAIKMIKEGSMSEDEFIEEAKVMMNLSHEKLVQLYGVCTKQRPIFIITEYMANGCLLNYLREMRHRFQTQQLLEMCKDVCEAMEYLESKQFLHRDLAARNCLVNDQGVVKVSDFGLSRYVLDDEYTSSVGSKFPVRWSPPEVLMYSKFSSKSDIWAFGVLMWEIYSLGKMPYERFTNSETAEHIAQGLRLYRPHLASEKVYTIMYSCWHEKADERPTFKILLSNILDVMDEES

Compound | BTK_I_binding pIC50
Cc1cc(OC2CCCC2)ncc1N1C(=O)Nc2c(C(=O)N[C@@H]3CCCNC3)sc3nccc1c23 (single isomer, unassigned) [Example 762, (R)-5-(*R)-(6-(Cyclopentyloxy)-4-methylpyridin-3-yl)-4-oxo-N-(piperidin-3-yl)-4,5-dihydro-3H-1-thia-3,5,8-triazaacenaphthylene-2-carboxamide] | <6
O=C(N[C@@H]1CCCNC1)c1sc2nccc3c2c1NC(=O)N3c1cccc(C2CCOCC2)c1 [Example 738, (R)-4-Oxo-N-(piperidin-3-yl)-5-(3-(tetrahydro-2H-pyran-4-yl)phenyl)-4,5-dihydro-3H-1-thia-3,5,8-triazaacenaphthylene-2-carboxamide] | <6
COCCC(=O)N1CCC[C@@H](NC(=O)c2sc3nccc4c3c2NC(=O)N4c2ccc(Oc3ccccc3)cc2)C1 [Example 593, (R)—N-(1-(3-Methoxypropanoyl)piperidin-3-yl)-4-oxo-5-(4-phenoxyphenyl)-4,5-dihydro-3H-1-thia-3,5,8-triazaacenaphthylene-2-carboxamide] | 7.2
CC(C)(C)OC(=O)N1CCC[C@@H](NC(=O)c2sc3nccc4c3c2NC(=O)N4c2ccc(OC3CCC3)nc2)C1 [Example 654, (R)-tert-Butyl 3-(5-(6-cyclobutoxypyridin-3-yl)-4-oxo-4,5-dihydro-3H-1-thia-3,5,8-triazaacenaphthylene-2-carboxamido)piperidine-1-carboxylate] | <5
O=C(N[C@@H]1CCCNC1)c1sc2nccc3c2c1NC(=O)N3c1ccc(O)cc1 [Example 642, (R)-5-(4-Hydroxyphenyl)-4-oxo-N-(piperidin-3-yl)-4,5-dihydro-3H-1-thia-3,5,8-triazaacenaphthylene-2-carboxamide] | 5.3

More lines, now with the values ahead:

BTK_I_binding pIC50 | Compound
7.3 | Cc1cc(Oc2ccccc2)ccc1N1C(=O)Nc2c(C(=O)NC3CCNCC3)sc3nccc1c23 [Example 865, 5-(2-Methyl-4-phenoxyphenyl)-4-oxo-N-(piperidin-4-yl)-4,5-dihydro-3H-1-thia-3,5,8-triazaacenaphthylene-2-carboxamide]
6.8 | Cc1cc(Oc2ccccc2)ccc1N1C(=O)Nc2c(C(=O)N[C@@H]3CCCN(C(=O)/C=C/CN4CCCCC4)C3)sc3nccc1c23 [Example 900, (R,E)-5-(2-Methyl-4-phenoxyphenyl)-4-oxo-N-(1-(4-(piperidin-1-yl)but-2-enoyl)piperidin-3-yl)-4,5-dihydro-3H-1-thia-3,5,8-triazaacenaphthylene-2-carboxamide]
7.3 | COc1ccccc1Oc1ccc(N2C(=O)Nc3c(C(=O)NC4CCCNC4)sc4nccc2c34)c(C)c1 (stereo not shown) [Example 870, 5-(4-(2-Methoxyphenoxy)-2-methylphenyl)-4-oxo-N-(piperidin-3-yl)-4,5-dihydro-3H-1-thia-3,5,8-triazaacenaphthylene-2-carboxamide]

Same assay, conditions: pIC50 = negative log of the IC50 in molar; 60 minutes incubation, 50 nM Tracer 236

Compound | BTK_I_binding pIC50
Cc1cc(Oc2ccccc2)ccc1N1C(=O)Nc2c(C(=O)NC3CC[C@H](C)NC3)sc3nccc1c23 (mixture of isomers) [Example 153, 5-(2-Methyl-4-phenoxyphenyl)-N-((6S)-6-methylpiperidin-3-yl)-4-oxo-4,5-dihydro-3H-1-thia-3,5,8-triazaacenaphthylene-2-carboxamide] | 6.8
COCCC(=O)N1CCC[C@@H](NC(=O)c2sc3nccc4c3c2NC(=O)N4c2ccc(Oc3ccccc3)c(F)c2C)C1 [Example 89, (R)-5-(3-Fluoro-2-methyl-4-phenoxyphenyl)-N-(1-(3-methoxypropanoyl)piperidin-3-yl)-4-oxo-4,5-dihydro-3H-1-thia-3,5,8-triazaacenaphthylene-2-carboxamide] | 7.1

Other lines, results leading:

BTK_I_binding pIC50 | Compound
7.7 | C#CC(=O)N1CCC[C@@H](NC(=O)c2sc3nccc4c3c2NC(=O)N4c2ccc(Oc3ccccc3)cc2C)C1 [Example 161, (R)-5-(2-Methyl-4-phenoxyphenyl)-4-oxo-N-(1-propioloylpiperidin-3-yl)-4,5-dihydro-3H-1-thia-3,5,8-triazaacenaphthylene-2-carboxamide]
6.8 | CCN1CC[C@@H](NC(=O)c2sc3nccc4c3c2NC(=O)N4c2ccc(Oc3ccccc3)cc2C)C1 [Example 141, (R)—N-(1-Ethylpyrrolidin-3-yl)-5-(2-methyl-4-phenoxyphenyl)-4-oxo-4,5-dihydro-3H-1-thia-3,5,8-triazaacenaphthylene-2-carboxamide]
6.9 | CCN1CCC[C@@H](NC(=O)c2sc3nccc4c3c2NC(=O)N4c2ccc(Oc3ccccc3)cc2C)C1 [Example 74, (R)—N-(1-Ethylpiperidin-3-yl)-5-(2-methyl-4-phenoxyphenyl)-4-oxo-4,5-dihydro-3H-1-thia-3,5,8-triazaacenaphthylene-2-carboxamide]

Same assay, conditions: unphosphorylated-BTK kinase domain, 50 nM Tracer 236, 60 minutes; pIC50 = negative log of the IC50 in molar

Compound | BTK_I_binding pIC50
C=CC(=O)N1CCC[C@@H](NC(=O)c2sc3nccc4c3c2NC(=O)N4c2ccc(C(C)(C)C)cc2)C1 [Example 334, (R)—N-(1-Acryloylpiperidin-3-yl)-5-(4-(tert-butyl)phenyl)-4-oxo-4,5-dihydro-3H-1-thia-3,5,8-triazaacenaphthylene-2-carboxamide] | 5.5
C=CC(=O)N1CCC[C@@H](NC(=O)c2sc3nccc4c3c2NC(=O)N4c2cccnc2C)C1 [Example 358, (R)—N-(1-Acryloylpiperidin-3-yl)-5-(2-methylpyridin-3-yl)-4-oxo-4,5-dihydro-3H-1-thia-3,5,8-triazaacenaphthylene-2-carboxamide] | 5.2
O=C(N[C@@H]1CCCNC1)c1sc2nccc3c2c1NC(=O)N3c1ccc(Cc2ccccc2)cc1 [Example 430, (R)-5-(4-Benzylphenyl)-4-oxo-N-(piperidin-3-yl)-4,5-dihydro-3H-1-thia-3,5,8-triazaacenaphthylene-2-carboxamide] | 6.3

The remaining lines, values ahead:

BTK_I_binding pIC50 | Compound
7.9 | C/C=C(\C#N)C(=O)N1CCC[C@@H](NC(=O)c2sc3nccc4c3c2NC(=O)N4c2ccc(Oc3ccccc3)cc2C)C1 [Example 385, (R,E)-N-(1-(2-Cyanobut-2-enoyl)piperidin-3-yl)-5-(2-methyl-4-phenoxyphenyl)-4-oxo-4,5-dihydro-3H-1-thia-3,5,8-triazaacenaphthylene-2-carboxamide]
7.2 | Cc1cc(Oc2ccccc2)ccc1N1C(=O)Nc2c(C(=O)N[C@@H]3CCCN(C(=O)/C=C/CN(C)C)C3)sc3nccc1c23 (single isomer, unassigned) [Example 488, (R,E)-N-(1-(4-(Dimethylamino)but-2-enoyl)piperidin-3-yl)-5-(*S)-(2-methyl-4-phenoxyphenyl)-4-oxo-4,5-dihydro-3H-1-thia-3,5,8-triazaacenaphthylene-2-carboxamide]

Same assay, conditions: unphosphorylated-BTK kinase domain, 50 nM Tracer 236, 60 minutes; pIC50 = negative log of the IC50 in molar; read-out: BTK_I_binding pIC50 (converted)

Compound | IC50 [nM]
[2H]c1c([2H])c([2H])c(Oc2ccc(N3C(=O)Nc4c(C(=O)N[C@@H]5CCCN(C(=O)C=C)C5)sc5nccc3c45)c(C)c2)c([2H])c1[2H] [Example 375, (R)—N-(1-Acryloylpiperidin-3-yl)-5-(2-methyl-4-(2,3,4,5,6-pentadeuteriophenoxy)phenyl)-4-oxo-4,5-dihydro-3H-1-thia-3,5,8-triazaacenaphthylene-2-carboxamide] | 12.6
